SMILES strings stand for the structures.

For one test, the target named is T1, CDK4 (Homo sapiens, UniProt P11802).
T1 construct: purchased Carna Company
In words: CDK enzymology experiment in vitro, capillary mobility shift assay (MSA). To be noted: read-out: CDK4 (nM) inhibitory IC50. The format is biochemical. On the procedure:
(§1) CDK1/CDK2/CDK4/CDK6/CDK7/CDK9 were purchased from Carna Company; Carliper substrate CTD3/substrate 18/substrate 8 were purchased from Gil Biochemical Company; Dinaciclib/Palbociclib were purchased from Selleckchem Company; DMSO was purchased from Sigma Company; 384-well plates were purchased from Corning Company.
(§2) • (1) Preparation of 1×Kinase buffer. • (2) Preparation of compound concentration gradient: Test concentration of the test compound was started at 1 μM, 10 μM or 30 μM, 3-fold dilution, 10 concentrations, detected in duplicate. The test compound was diluted to a 100-fold final concentration with 100% DMSO solution in a 384 source plate. Liquid handler Echo 550 was used to transfer 250 nL of 100-fold final concentration of the compound to the target plate 384-well plate. […] The 384-well plate was centrifuged at 1000 rpm for 30 seconds, and shaken to mix uniformly. • (10) The conversion rate was read with Caliper EZ Reader.
(§3) Where, conversion %_sample is the readings of conversion rate of the sample; conversion %_min: the average value of negative control wells, representing the readings of conversion rate of wells without enzyme activity; conversion %_max: the average value of positive control wells, representing the readings of conversion rate of wells without compound inhibition.
(§4) Taking the log value of the concentration as the X-axis, and the percentage inhibition rate as the Y-axis, the dose-effect curve was fitted using the log(inhibitor) vs. response—Variable slope of the analysis software GraphPad Prism 5 so as to obtain the IC50 value of each compound on the enzyme activity.
(§5) Y=Bottom+(Top−Bottom)/(1+10^((Log IC50−X)*HillSlope)). Calculation formula: […]

A further test deals with T2, CDK2 (Homo sapiens, UniProt P24941).
T2 construct: purchased Carna Company
The description is as above. The format is biochemical. Particulars: read-out: CDK2 (nM) inhibitory IC50. The procedure: as §1, §2, §3, §4, §5

T1 sequence (P11802 whole entry): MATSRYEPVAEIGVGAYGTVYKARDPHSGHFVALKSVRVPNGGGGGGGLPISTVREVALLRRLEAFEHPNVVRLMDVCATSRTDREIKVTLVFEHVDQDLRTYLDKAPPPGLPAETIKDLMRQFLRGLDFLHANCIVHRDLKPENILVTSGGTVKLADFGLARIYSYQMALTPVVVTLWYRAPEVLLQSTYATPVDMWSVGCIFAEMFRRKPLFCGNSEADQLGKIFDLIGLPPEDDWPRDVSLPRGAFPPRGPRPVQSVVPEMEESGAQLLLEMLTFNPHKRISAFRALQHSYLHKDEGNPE
T1 sequence (P30281 whole entry partner): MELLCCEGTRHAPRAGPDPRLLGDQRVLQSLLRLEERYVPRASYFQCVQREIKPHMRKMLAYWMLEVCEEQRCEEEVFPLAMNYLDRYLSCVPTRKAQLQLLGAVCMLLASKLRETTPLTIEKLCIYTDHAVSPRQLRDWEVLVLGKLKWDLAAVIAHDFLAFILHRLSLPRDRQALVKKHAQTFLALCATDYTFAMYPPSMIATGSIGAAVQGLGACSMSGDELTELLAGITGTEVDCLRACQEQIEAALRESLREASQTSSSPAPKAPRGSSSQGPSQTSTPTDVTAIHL

In general, IC50 refers to the point on the concentration scale where inhibition reaches its midpoint. As to `CN1CC[C@H](Nc2nc(NC3CCN(S(=O)(=O)c4cnn(C)c4)CC3)ncc2C#N)C1` [Compound 72], the results for the IC50 at CDK4 and on CDK2 were 10 to 50 nM and 2.5 to 10 nM, respectively.
Consider `Cn1cc(-c2ccc(S(=O)(=O)N3CCC(Nc4cc(N[C@H]5CCOC5)c(C#N)cn4)CC3)cc2)cn1` [Compound 166], for which the results for the half-maximal inhibitory concentration (IC50) on CDK4 and on CDK2 were 2.5 to 10 nM and 0.5 to 2.5 nM, respectively.
For `Cn1cc(S(=O)(=O)N2CCC(Nc3ncc(C#N)c(NC4CCOCC4)n3)CC2)cn1` [Compound 81], the IC50 is 100 to 1000 nM on CDK4 and 10 to 50 nM at CDK2.
In the case of `CO[C@@H]1CCC[C@H]1Nc1nc(NC2CCN(S(=O)(=O)c3cnn(C)c3)CC2)ncc1C#N` [Example 14], the figures for the 50% inhibitory concentration (IC50) on CDK4 and at CDK2 were 100 to 1000 nM and 10 to 50 nM, respectively.
On the same counts, the results for `Cn1cc(S(=O)(=O)N2CCC(Nc3ncc(C#N)c(NC(C)(C)C)n3)CC2)cn1` [Compound 42] are 10 to 50 nM and 10 to 50 nM.
With `Cn1cc(S(=O)(=O)N2CCC(Nc3ncc(C(F)F)c(O[C@H]4CCOC4)n3)CC2)cn1` [Compound 126], the IC50 lay in the range of 100 to 1000 nM at CDK4 and 10 to 50 nM at CDK2.
Consider `Cn1cc(S(=O)(=O)N2CC[C@@H](Nc3ncc(C(F)(F)F)c(O[C@H]4CCOC4)n3)[C@H](F)C2)cn1` [Compound 125], for which the concentration for half-maximal inhibition (IC50) at CDK4 was in the range of 10 to 50 nM; on CDK2, 0.5 to 2.5 nM.
As to `O=S(=O)(c1ccc(Br)cc1)N1CCC(Nc2ncc(C(F)(F)F)c(O[C@H]3CCOC3)n2)CC1` [Example 99], the half-inhibitory concentration (IC50) on CDK4 was 2.5 to 10 nM; on CDK2, 0.5 to 2.5 nM.
For the compound `O=S(=O)(c1ccc(C2=CCNCC2)cc1)N1CCC(Nc2ncc(C(F)(F)F)c(N[C@@H]3CCC[C@H]3O)n2)CC1` [Compound 102], the results for the IC50 on CDK4 and at CDK2 were 2.5 to 10 nM and 0.5 to 2.5 nM, respectively.
Regarding `C[C@@H]1COCCN1c1nc(NC2CCN(S(=O)(=O)c3cnn(C)c3)CC2)ncc1C#N` [Compound 38], the concentration for half-maximal inhibition (IC50) at CDK4 was 50 to 100 nM; on CDK2, 10 to 50 nM.
`C[C@H](CO)Nc1nc(NC2CCN(S(=O)(=O)c3cnn(C)c3)CC2)ncc1C#N` [Compound 70]: the concentration for half-maximal inhibition (IC50) on CDK4 is 50 to 100 nM; on CDK2 it was 10 to 50 nM.
In the case of `CC(C)n1cc(S(=O)(=O)N2CCC(Nc3ncc(C(F)(F)F)c(O[C@H]4CCOC4)n3)CC2)cn1` [Compound 110], the figures for the IC50 at CDK4 and on CDK2 were 10 to 50 nM and 0.5 to 2.5 nM, respectively.
In the case of `Cn1ccc(S(=O)(=O)N2CCC(Nc3ncc(C#N)c(NC4CCCC4)n3)CC2)n1` [Compound 33], the IC50 on CDK4 fell in the range of 10 to 50 nM; at CDK2, 2.5 to 10 nM.
On the same counts, the results for `Cn1cc(S(=O)(=O)N2CCC(Nc3ncc(C(F)(F)F)c(O[C@H]4CCOC4)n3)C(F)(F)C2)cn1` (stereo partly shown) [Compound 129] are 10 to 50 nM and 2.5 to 10 nM.
On to `Cn1cc(S(=O)(=O)N2CCC(Nc3ncc(C#N)c(NC4CC(F)(F)C4)n3)CC2)cn1` [Compound 78], for which the IC50 at CDK4 is 10 to 50 nM; on CDK2, 2.5 to 10 nM.
For the compound `Cn1cc(S(=O)(=O)N2CCC(Nc3ncc(C#N)c(SC4CCCC4)n3)CC2)cn1` [Compound 96], the IC50 lay within 2.5 to 10 nM on CDK4 and 0.5 to 2.5 nM at CDK2.
Taken in the same sequence, the figures for `Cn1cc(S(=O)(=O)N2CCC(Nc3ncc(C#N)c(O[C@H]4CC[C@H](O)C4)n3)CC2)cn1` (single isomer, unassigned) [Compound 56] were 50 to 100 nM and 2.5 to 10 nM.
Take `Cn1cc(-c2ccc(S(=O)(=O)N3CCC(Nc4ncc(C#N)c(N[C@@H]5CCOC5)n4)CC3)cc2)cn1` [Compound 95]: the IC50 was in the range of 10 to 50 nM on CDK4 and 0.5 to 2.5 nM at CDK2.
For `CN(C)[C@@H]1CCCC1Nc1nc(NC2CCN(S(=O)(=O)c3cnn(C)c3)CC2)ncc1C#N` (stereo partly shown) [Example 23], the IC50 on CDK4 was in the range of 50 to 100 nM; on CDK2, 2.5 to 10 nM.
On the same counts, the results for `O=S(=O)(c1cnn(S(=O)(=O)c2cn[nH]c2)c1)N1CCC(Nc2ncc(C(F)(F)F)c(O[C@H]3CCOC3)n2)CC1` [Example 26, (S)—N-(1-((1-((1H-Pyrazol-4-yl)sulfonyl)-1H-pyrazol-4-yl)sulfonyl)piperidin-4-yl)-4-((tetrahydrofuran-3-yl)oxy)-5-(trifluoromethyl)pyrimidin-2-amine] are 2.5 to 10 nM and under 0.5 nM.
For the compound `Cn1cc(S(=O)(=O)N2CCC(Nc3cc(N[C@H]4CCOC4)c(C#N)cn3)CC2)cn1` [Compound 164], the figures for the IC50 at CDK4 and on CDK2 were 50 to 100 nM and 10 to 50 nM, respectively.
`C[C@@H](CO)Nc1nc(NC2CCN(S(=O)(=O)c3cnn(C)c3)CC2)ncc1C#N` [Compound 69]: the IC50 on CDK4 was 100 to 1000 nM; on CDK2, 10 to 50 nM.
As for `Cn1cc(S(=O)(=O)N2CCC(Nc3ncc(C#N)c(N[C@H]4CCC[C@]4(C)O)n3)CC2)cn1` (single isomer, unassigned) [Example 21], the IC50 is 10 to 50 nM at CDK4 and 2.5 to 10 nM at CDK2.
For `CS(=O)(=O)N1CCC(Nc2ncc(C#N)c(-c3ccccc3)n2)CC1` [Example 4, 2-((1-(Methylsulfonyl)piperidin-4-yl)amino)-4-phenylpyrimidine-5-carbonitrile], the IC50 at CDK4 and on CDK2 was 10 to 50 nM throughout.
Take `Cn1cc(-c2ccc(S(=O)(=O)N3CCC(Nc4ncc(C#N)c(N[C@@H]5CCC[C@@H]5O)n4)CC3)cc2)cn1` [Compound 61]: the half-maximal inhibitory concentration (IC50) fell in the range of 2.5 to 10 nM on CDK4 and 0.5 to 2.5 nM on CDK2.
On the same counts, the results for `Cn1cc(-c2ccc(S(=O)(=O)N3CCC(Nc4ncc(C#N)c(N[C@@H]5CCC[C@H]5O)n4)CC3)cc2)cn1` [Compound 50] are 10 to 50 nM and 0.5 to 2.5 nM.
With `Cn1cc(S(=O)(=O)N2CCC(Nc3ncc(C#N)c(O[C@@H]4CCC[C@H]4O)n3)CC2)cn1` (relative stereo) [Compound 68], the IC50 lay within 10 to 50 nM on CDK4 and 2.5 to 10 nM at CDK2.
Take `N#Cc1cnc(NC2CCN(S(=O)(=O)c3ccc(-c4cn[nH]c4)cc3)CC2)nc1N[C@H]1CCOC1` [Compound 105]: the IC50 on CDK4 lay within 10 to 50 nM; on CDK2, 0.5 to 2.5 nM.
As to `Cn1cc(S(=O)(=O)N2CCC(Nc3ncc(C#N)c(O[C@@H]4CCC[C@H]4O)n3)CC2)cn1` (single isomer, unassigned) [Compound 67], the IC50 on CDK4 is 10 to 50 nM; at CDK2, 2.5 to 10 nM.
`Cn1cc(S(=O)(=O)N2CCC(Nc3ncc(C#N)c(N[C@@H]4CCOC4)n3)CC2)cn1` [Compound 43]: the concentration for half-maximal inhibition (IC50) was in the range of 100 to 1000 nM on CDK4 and 10 to 50 nM at CDK2.
`O=S(=O)(c1ccc(C2=CCNCC2)cc1)N1CCC(Nc2ncc(C(F)(F)F)c(C=C3CCCC3)n2)CC1` [Compound 201]: the concentration for half-maximal inhibition (IC50) on CDK4 fell in the range of 2.5 to 10 nM; on CDK2, 0.5 to 2.5 nM.
In the case of `O=S(=O)(c1ccccn1)N1CCC(Nc2ncc(C(F)(F)F)c(O[C@H]3CCOC3)n2)CC1` [Compound 109], the results for the half-maximal inhibitory concentration (IC50) on CDK4 and at CDK2 were 10 to 50 nM and 0.5 to 2.5 nM, respectively.
In the case of `O=S(=O)(c1cn[nH]c1)N1CCC(Nc2ncc(C(F)(F)F)c(O[C@H]3CCOC3)n2)CC1` [Example 25], the 50% inhibitory concentration (IC50) on CDK4 was 2.5 to 10 nM; on CDK2, under 0.5 nM.
Regarding `Cn1cc(S(=O)(=O)N2CCC(Nc3ncc(C#N)c(CC4CCCC4)n3)CC2)cn1` [Example 10, 4-(Cyclopentylmethyl)-2-((1-((1-methyl-1H-pyrazol-4-yl)sulfonyl)piperidin-4-yl)amino)pyrimidine-5-carbonitrile], the IC50 on CDK4 was 10 to 50 nM; at CDK2 it was 2.5 to 10 nM.
On to `Cn1cc(S(=O)(=O)N2CCC(Nc3ncc(C#N)c(N[C@@H]4CC[C@H](O)C4)n3)CC2)cn1` (single isomer, unassigned) [Example 13], for which the IC50 at CDK4 was in the range of 10 to 50 nM; at CDK2 it was 2.5 to 10 nM.
On to `CN1CC[C@@H](Nc2nc(NC3CCN(S(=O)(=O)c4cnn(C)c4)CC3)ncc2C#N)C1` [Compound 71], for which the IC50 was in the range of 10 to 50 nM at CDK4 and 2.5 to 10 nM on CDK2.
Take `N#Cc1cnc(NC2CCN(S(=O)(=O)c3ccc(Br)cc3)CC2)nc1N[C@H]1CCOC1` [Compound 106]: the IC50 on CDK4 lay within 100 to 1000 nM; on CDK2, 10 to 50 nM.
Turning to `Cn1cc(S(=O)(=O)N2CCC(Nc3ncc(C#N)c(O[C@H]4CCC[C@@H]4O)n3)CC2)cn1` (single isomer, unassigned) [Compound 66], the IC50 at CDK4 was 10 to 50 nM; on CDK2 it was 2.5 to 10 nM.
In the case of `Cn1cc(S(=O)(=O)N2CCC(Nc3ncc(C#N)c(O[C@H]4CC[C@H](O)C4)n3)CC2)cn1` (relative stereo) [Compound 55], the IC50 was 10 to 50 nM at CDK4 and 2.5 to 10 nM at CDK2.
On to `Cn1cc(S(=O)(=O)N2CCC(Nc3ncc(C#N)c(NC4CCC(F)(F)C4)n3)CC2)cn1` (stereo not shown) [Compound 41], for which the values for the 50% inhibitory concentration (IC50) on CDK4 and at CDK2 were 10 to 50 nM and 2.5 to 10 nM, respectively.
With `CN(c1nc(NC2CCN(S(=O)(=O)c3cnn(C)c3)CC2)ncc1C#N)C1CCCC1` [Compound 39], the IC50 at CDK4 lay within 2.5 to 10 nM; at CDK2 it was 0.5 to 2.5 nM.
Regarding `NC(=O)Cn1cc(S(=O)(=O)N2CCC(Nc3ncc(C(F)(F)F)c(O[C@H]4CCOC4)n3)CC2)cn1` [Compound 134], the IC50 was 10 to 50 nM at CDK4 and under 0.5 nM at CDK2.
As to `Cn1cc(-c2ccc(S(=O)(=O)N3CCC(Nc4ncc(C#N)c(N[C@@H]5CCC[C@H]5O)n4)CC3)cc2)cn1` [Compound 60], at CDK2, the IC50 lay within 0.5 to 2.5 nM.

Source of the values: US20250009745A1, “CDK INHIBITOR” (SHANGHAI QILU PHARMACEUTICAL RESEARCH AND DEVELOPMENT …, priority 2021, published 2025).
